# In the oligonucleotide strings, read from the 5' end, every base follows the letter of its sugar. An asterisk marks phosphorothioate; unmarked linkages are phosphodiester. Other units and linkages are bracketed, terminal groups are in braces. A string of capitals states the bases alone. e = 2'-O-(2-methoxyethyl) (MOE); [5mC] = 5-methylcytosine; d = 2'-deoxy (DNA)
# Tested on: human growth hormone receptor mRNA
# Experiment: Inhibition of human growth hormone receptor mRNA levels in MCF7 cells, quantitative real-time PCR
# Assay type: cell-based
# Set-up: concentration or dose not given beside the values
# Settings: averages from three experiments
# Procedure: The human breast carcinoma cell line MCF-7 was obtained from the American Type Culture Collection (Manassas, Va.). MCF-7 cells were routinely cultured in DMEM low glucose (Gibco/Life Technologies, Gaithersburg, Md.) supplemented with 10% fetal calf serum (Gibco/Life Technologies, Gaithersburg, Md.). Cells were routinely passaged by trypsinization and dilution when they reached 90% confluence. Cells were seeded into 96-well plates (Falcon-Primaria #3872) at a density of 7000 cells/well for use in RT-PCR analysis.
# When cells reached 65-75% confluency, they were treated with oligonucleotide. For cells grown in 96-well plates, wells were washed once with 100 μL OPTI-MEM™-1 reduced-serum medium (Invitrogen Corporation, Carlsbad, Calif.) and then treated with 130 μL of OPTI-MEM™-1 containing 3.75 μg/mL LIPOFECTIN™ (Invitrogen Corporation, Carlsbad, Calif.) and the desired concentration of oligonucleotide. Cells are treated and data are obtained in triplicate. After 4-7 hours of treatment at 37° C., the medium was replaced with fresh medium. Cells were harvested 16-24 hours after oligonucleotide treatment.
# Total RNA was isolated using an RNEASY 96™ kit and buffers purchased from Qiagen Inc. (Valencia, Calif.) following the manufacturer's recommended procedures. Briefly, for cells grown on 96-well plates, growth medium was removed from the cells and each well was washed with 200 μL cold PBS. 150 μL Buffer RLT was added to each well and the plate vigorously agitated for 20 seconds. 150 μL of 70% ethanol was then added to each well and the contents mixed by pipetting three times up and down. The samples were then transferred to the RNEASY 96™ well plate attached to a QIAVAC™ manifold fitted with a waste collection tray and attached to a vacuum source. Vacuum was applied for 1 minute. 500 μL of Buffer RW1 was added to each well of the RNEASY 96™ plate and incubated for 15 minutes and the vacuum was again applied for 1 minute. An additional 500 μL of Buffer RW1 was added to each well of the RNEASY 96™ plate and the vacuum was applied for 2 minutes. 1 mL of Buffer RPE was then added to each well of the RNEASY 96™ plate and the vacuum applied for a period of 90 seconds. The Buffer RPE wash was then repeated and the vacuum was applied for an additional 3 minutes. The plate was then removed from the QIAVAC™ manifold and blotted dry on paper towels. The plate was then re-attached to the QIAVAC™ manifold fitted with a collection tube rack containing 1.2 mL collection tubes. RNA was then eluted by pipetting 140 μL of RNAse free water into each well, incubating 1 minute, and then applying the vacuum for 3 minutes.
# Quantitation of growth hormone receptor mRNA levels was accomplished by real-time quantitative PCR using the ABI PRISM™ 7600, 7700, or 7900 Sequence Detection System (PE-Applied Biosystems, Foster City, Calif.) according to manufacturer's instructions. This is a closed-tube, non-gel-based, fluorescence detection system which allows high-throughput quantitation of polymerase chain reaction (PCR) products in real-time. As opposed to standard PCR in which amplification products are quantitated after the PCR is completed, products in real-time quantitative PCR are quantitated as they accumulate. This is accomplished by including in the PCR reaction an oligonucleotide probe that anneals specifically between the forward and reverse PCR primers, and contains two fluorescent dyes. A reporter dye (e.g., FAM or JOE, obtained from either PE-Applied Biosystems, Foster City, Calif., Operon Technologies Inc., Alameda, Calif. or Integrated DNA Technologies Inc., Coralville, Iowa) is attached to the 5′ end of the probe and a quencher dye (e.g., TAMRA, obtained from either PE-Applied Biosystems, Foster City, Calif., Operon Technologies Inc., Alameda, Calif. or Integrated DNA Technologies Inc., Coralville, Iowa) is attached to the 3′ end of the probe. When the probe and dyes are intact, reporter dye emission is quenched by the proximity of the 3′ quencher dye. […]
row,Substance,% INHIB
1,272341 (antisense eG*eA*eG*eG*e[5mC]*dT*dA*dT*dA*dG*dA*dT*d[5mC]*dT*dT*eA*eT*e[5mC]*eT*e[5mC]) [compound 272341],65%
2,272307 (antisense eG*eT*eG*eA*eA*dT*dT*dT*dA*dG*dG*d[5mC]*dT*d[5mC]*d[5mC]*eT*eT*eA*eG*eA) [compound 272307],55%
3,272317 (antisense eA*eG*e[5mC]*e[5mC]*e[5mC]*dA*dA*dA*dT*dA*dT*dT*d[5mC]*d[5mC]*dA*eA*eA*eG*eA*eT) [compound 272317],65%
4,272348 (antisense e[5mC]*eA*e[5mC]*eA*eG*d[5mC]*dT*dT*dT*dG*dA*dA*dT*dT*dG*eA*eA*eT*eT*eA) [compound 272348],57%
5,272323 (antisense eT*eG*eT*eG*eT*d[5mC]*dT*dG*dA*dT*dT*d[5mC]*d[5mC]*dT*d[5mC]*eA*eG*eT*e[5mC]*eT) [compound 272323],67%
6,272328 (antisense eG*eG*e[5mC]*eA*eT*dT*dG*dT*d[5mC]*d[5mC]*dA*dT*dA*dA*dG*eG*eA*eA*eG*eT) [compound 272328],85%
7,272308 (antisense eG*e[5mC]*eT*eG*eT*dA*dT*dG*dG*dG*dT*d[5mC]*d[5mC]*dT*dA*eG*eG*eT*eT*e[5mC]) [compound 272308],57%
8,272336 (antisense e[5mC]*eA*eA*eT*e[5mC]*dA*d[5mC]*dT*dG*d[5mC]*dT*dA*d[5mC]*dT*dA*eA*eA*e[5mC]*eA*eG) [compound 272336],69%
9,272342 (antisense eT*eA*eG*eT*eG*dA*dG*dA*dA*dA*dG*dA*dA*dA*dG*eT*eT*eT*e[5mC]*eT) [compound 272342],45%
10,227481 (antisense eT*eG*eG*eT*eG*dA*dT*dG*dT*dA*dA*dA*dT*dG*dT*e[5mC]*e[5mC]*eT*e[5mC]*eT) [compound 227481],45%
11,272345 (antisense e[5mC]*eA*eT*e[5mC]*eT*dA*dT*dT*dA*d[5mC]*dA*dA*dA*dT*dA*eA*e[5mC]*eA*eT*eG) [compound 272345],24%
12,272344 (antisense eA*e[5mC]*eA*e[5mC]*eT*d[5mC]*dA*dA*dT*dT*d[5mC]*dT*dA*dG*d[5mC]*eT*eT*eT*eT*e[5mC]) [compound 272344],60%
13,272311 (antisense eT*eT*eG*e[5mC]*eA*d[5mC]*dT*dA*dT*dT*dT*d[5mC]*dA*dT*d[5mC]*eA*eA*e[5mC]*eA*eG) [compound 272311],47%
14,272361 (antisense eA*eT*eT*eT*eT*d[5mC]*d[5mC]*dT*dT*d[5mC]*d[5mC]*dT*dA*dG*dA*eA*eA*eA*eT*eA) [compound 272361],10%
15,227469 (antisense e[5mC]*eT*eT*eA*eG*dA*dA*dG*dT*d[5mC]*dT*dG*dT*d[5mC]*dT*eG*eT*eG*eT*e[5mC]) [compound 227469],63%
16,272343 (antisense eA*eA*eT*eG*e[5mC]*dT*d[5mC]*dT*d[5mC]*dA*dA*dG*dA*dA*dT*eG*eA*eT*eG*eT) [compound 272343],48%
17,272358 (antisense eT*e[5mC]*eT*e[5mC]*e[5mC]*dA*dG*dA*dT*dA*dG*dA*dA*dT*d[5mC]*eT*eA*eA*eA*e[5mC]) [compound 272358],53%
18,272354 (antisense eA*eG*eT*eT*eA*dT*dG*dT*dG*dA*d[5mC]*d[5mC]*d[5mC]*dT*dG*eA*eT*eT*eG*eA) [compound 272354],65%
19,227502 (antisense eG*eA*eT*eT*eG*dA*dG*dG*dT*dA*dT*dT*dT*dA*dG*e[5mC]*eT*eA*eT*eT) [compound 227502],56%
20,227488 (antisense eA*eG*eT*eT*eG*dG*dT*d[5mC]*dT*dG*dT*dG*d[5mC]*dT*d[5mC]*eA*e[5mC]*eA*eT*eA) [compound 227488],86%

row,Substance,% INHIB
1,227480 (antisense eA*eT*eG*eT*eA*dA*dA*dT*dG*dT*d[5mC]*d[5mC]*dT*d[5mC]*dT*eT*eG*eG*eT*eT) [compound 227480],66%
2,272306 (antisense eT*eT*eA*eG*eA*dA*dG*dA*dA*dT*dT*dT*dG*dT*d[5mC]*eT*eT*eT*eA*eG) [compound 272306],13%
3,272352 (antisense e[5mC]*e[5mC]*eA*eA*eA*dA*dT*dG*dA*d[5mC]*dA*dT*dT*d[5mC]*dT*eG*eA*eG*eA*e[5mC]) [compound 272352],77%
4,272331 (antisense e[5mC]*eA*eG*eT*e[5mC]*dG*d[5mC]*dA*dT*dT*dG*dA*dG*dT*dA*eT*eG*eA*eG*eG) [compound 272331],67%
5,227475 (antisense e[5mC]*e[5mC]*eT*eG*e[5mC]*dT*dG*dG*dT*dG*dT*dA*dA*dT*dG*eT*e[5mC]*eG*e[5mC]*eT) [compound 227475],68%
6,272313 (antisense eA*eT*eT*eG*e[5mC]*dG*dT*dG*dG*dT*dG*d[5mC]*dT*dT*d[5mC]*e[5mC]*e[5mC]*eA*eT*e[5mC]) [compound 272313],77%
7,272357 (antisense eT*eA*eG*eG*eG*dT*d[5mC]*d[5mC]*dA*dT*d[5mC]*dT*dT*dT*d[5mC]*eA*eA*eG*eA*e[5mC]) [compound 272357],62%
8,272314 (antisense eT*eA*eG*eG*eG*dT*d[5mC]*d[5mC]*dA*dT*d[5mC]*dA*dT*dT*dT*eT*e[5mC]*e[5mC]*eA*eT) [compound 272314],56%
9,272312 (antisense eG*eG*eG*eT*eG*dG*dA*dT*d[5mC]*dT*dG*dG*dT*dT*dG*e[5mC]*eA*e[5mC]*eT*eA) [compound 272312],57%
10,272347 (antisense eT*e[5mC]*eT*eA*e[5mC]*dA*d[5mC]*dT*dG*dA*dT*dG*dA*dT*dA*e[5mC]*eT*eT*eT*eA) [compound 272347],62%
11,227464 (antisense e[5mC]*e[5mC]*eT*eT*eT*dA*dA*dT*d[5mC]*dT*dT*dT*dG*dG*dA*eA*e[5mC]*eT*eG*eG) [compound 227464],58%
12,227490 (antisense eG*e[5mC]*eA*eT*eG*dA*dT*dT*dT*dT*dG*dT*dT*d[5mC]*dA*eG*eT*eT*eG*eG) [compound 227490],67%
13,272305 (antisense eT*eT*eG*eT*e[5mC]*dT*dT*dT*dA*dG*dG*d[5mC]*d[5mC]*dT*dG*eG*eA*eT*eT*eA) [compound 272305],68%
14,227499 (antisense eT*eA*eT*eA*eA*dA*dA*dG*dG*dG*d[5mC]*dT*dT*dT*dG*eT*eA*eA*eA*eA) [compound 227499],14%
15,272333 (antisense eG*eT*eG*e[5mC]*eT*d[5mC]*dA*d[5mC]*dA*dT*dA*dG*d[5mC]*d[5mC]*dA*e[5mC]*eA*eT*eG*eA) [compound 272333],72%
16,272309 (antisense eT*eA*eA*e[5mC]*eA*dG*d[5mC]*dT*dG*dT*dT*dT*dT*d[5mC]*d[5mC]*e[5mC]*e[5mC]*eA*eG*e[5mC]) [compound 272309],85%
17,272334 (antisense eA*eA*eG*eA*eA*dA*dG*dG*d[5mC]*dT*dA*dA*dG*dG*d[5mC]*eA*eT*eG*eA*eT) [compound 272334],61%
18,272340 (antisense e[5mC]*eA*eT*e[5mC]*eA*dA*d[5mC]*d[5mC]*dA*dA*dG*dA*dT*dT*dT*eG*eG*eT*eG*eA) [compound 272340],69%
19,272356 (antisense eA*eT*eG*eG*eA*dG*dG*d[5mC]*dT*dG*dG*dA*dG*dG*dT*eT*e[5mC]*eA*eA*eA) [compound 272356],63%
